Measurements as given in US20180071317A1, “USE OF AGENTS THAT ALTER THE PERITUMORAL ENVIRONMENT FOR THE TREATMENT OF CANCER” (SERVICIO ANDALUZ DE SALUD, priority 2011, published 2018).

Key:
[1] = system: fibroblast cells in co-culture with cells isolated from primary human tumors; test: Marker expression (IHC) in fibroblasts co-cultured with primary human tumor cells (colon, pancreatic, lung carcinoma, glioma, multiple myeloma); format: cell-based
Experimental: To check that the interaction of the human primary tumor cells with stromal cells, [human fibroblasts,] stimulates the secretion of substances of importance for survival and tumor progression, co-cultures were performed using stromal cells with human fibroblast-tumor cells obtained directly from primary human tumors.
On this occasion, in order to identify, using immunohistochemical techniques, the secretion of substances of importance for the survival and progression of tumors, the following antibodies were used: TGF-α (SAB4502953), TGF-β1 (SAB4502954), TGF-β2 (SAB4502956), TGF-β3 (SAB4502957), SPARC (HPA002989), MMP-3 (HPA007875), MMP-7 (SAB4501894), MMP-9 (SAB4501896), MMP-11 (SAB4501898) MMP-13 (SAB4501900) and MMP-14 (SAB4501901) using specific antibodies against them. All antibodies used were rabbit polyclonal antibodies obtained from Sigma-Aldrich and were used at a concentration of 1/1000 to achieve these immunohistochemical studies. All experiments were carried out sixfold.

[2] = system: fibroblasts of tumors produced by human glioma tumor line (GAMG); test: Marker expression (IHC) in fibroblasts of tumor or peritumoral area, mouse model, GAMG; format: in vivo; conditions: GAMG tumors in mice, 30 mg/kg/day oral, 7 days
Experimental: (§1) In vitro tests conducted in Example 5 are now carried out in an experimental model in mice in vivo. […] Subsequently, the expression in fibroblasts tumoral and peritumoral area of molecular markers associated with progression and maintenance of tumors: TGF-α, TGF-β1, TGF-β2, TGF-β3, MMP-7, MMP-11, MMP-14 were analyzed by immunohistochemistry.
(§2) Were injected with 2×10^7 cells tumors (corresponding, in each case to each of the tumor types as specified in Table 9) in 200 of PBS subcutaneously μl. […] Mice were randomized into two groups when the tumors reached a volume of 75 mm^3 One group was treated with non-peptide receptor antagonists NK1 and the other with placebo 200μ1. […] Tumors and samples of non-neoplastic stromal areas remote from the tumor were halved, formalin fixed (4%) and then were included in paraffin blocks for analysis by immunohistochemistry.
(§3) The expression on fibroblast cells obtained in the animal model was analyzed by immunohistochemistry, of the above markers: TGF-α, TGF-β1, TGF-β2, TGF-β3, MMP-7, MMP-1 1, MMP-14MP-14. Tables 32 to 35 depict the type of label used and the average percentage of fibroblasts present in non-tumor areas, tumor and peritumoral (±SD) which were expressing the marker shown in each of the tumor types developed from of the different cell lines used. This process was realized in mice treated with non-peptide antagonists of NK1 receptor and in untreated animals (control).

[3] = system: fibroblasts (PHF) cells co-cultured with human T lymphoma tumor (DERL-7); test: Marker expression (IHC) in PHF co-cultured with DERL-7 tumor cells; format: cell-based; conditions: PHF co-cultured with DERL-7 + SP + NK1 antagonist
Experimental: All cultures were maintained 48 hours, following which the same cells were included in paraffin blocks for subsequent analysis of the expression of different markers by immunohistochemistry (see Example 1). The primary antibodies used to perform immunohistochemical assays and their concentration are detailed in Example 2. All experiments were carried out sixfold. Analyzed markers in fibroblast cells (stromal cells) were: TGF-α, TGF-β1, TGF-β2, TGF-β3, SPARC, MMP-3, MMP-7, MMP-9, MMP-11, MMP-13 and MMP-14.

[4] = system: fibroblasts (PHF) co-cultured with tumor cells of human pancreatic adenocarcinoma (CAPAN-1); test: Marker expression (IHC) in PHF co-cultured with CAPAN-1 tumor cells; format: cell-based; conditions: co-culture with CAPAN-1; SP 1 μM + antagonist 1 μM; 48 h;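 note: cultures grown in fresh plasma from a healthy human donor, run in six replicates, value is percent of fibroblasts positive for each marker, compared with fibroblasts cultured alone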
[5] = system: fibroblasts of tumors produced by tumor cell line of human melanoma (MEL HO); test: Marker expression (IHC) in fibroblasts of tumor or peritumoral area, mouse model, MEL HO; format: in vivo; conditions: MEL HO tumors in mice, 30 mg/kg/day oral, 7 days
Experimental: as §1, §2, §3

[6] = system: fibroblasts of tumors produced by lung carcinoma non small cell human (HCC-44) cells; test: Marker expression (IHC) in fibroblasts of tumor or peritumoral area, mouse model, HCC-44; format: in vivo; conditions: HCC-44 tumors in mice, 30 mg/kg/day oral, 7 days
Experimental: The expression on fibroblast cells obtained in the animal model was analyzed by immunohistochemistry, of the above markers: TGF-α, TGF-β1, TGF-β2, TGF-β3, MMP-7, MMP-1 1, MMP-14MP-14. […] This process was realized in mice treated with non-peptide antagonists of NK1 receptor and in untreated animals (control).

[7] = Primary tumor cells (colon carcinoma) co-cultured + fibroblast + SP (1 μM) + NK1 antagonist 1 μM
[8] = co-culture with cells isolated from glioma, SP 1 μM + antagonist 1 μM
[9] = co-culture with cells isolated from lung cancer, SP 1 μM + antagonist 1 μM
[10] = co-culture with cells isolated from multiple myeloma, SP 1 μM + antagonist 1 μM
[11] = co-culture with cells isolated from pancreatic carcinoma, SP 1 μM + antagonist 1 μM

Cc1cc(F)ccc1[C@H]1CNCCN1C(=O)N(C)[C@H](C)c1cc(C(F)(F)F)cc(C(F)(F)F)c1 [Vestipitant]
0%: Percentage of fibroblast cells which expressed MMP-3 [1, 7] | Percentage of fibroblast cells which expressed MMP-7 [1, 7] | Percentage of fibroblast cells which expressed MMP-9 [1, 7] | Percentage of fibroblast cells which expressed MMP-11 [1, 7] | Percentage of fibroblast cells which expressed MMP-13 [1, 7] | Percentage of fibroblast cells which expressed MMP-14 [1, 7] | Percentage of fibroblast cells which expressed SPARC [1, 7] | Percentage of fibroblast cells which expressed TGFα [1, 7] | Percentage of fibroblast cells which expressed TGFβ1 [1, 7] | Percentage of fibroblast cells which expressed TGFβ2 [1, 7] | Percentage of fibroblast cells which expressed TGFβ3 [1, 7] | Percentage of fibroblast cells which expressed MMP-3 [1, 8] | Percentage of fibroblast cells which expressed MMP-7 [1, 8] | Percentage of fibroblast cells which expressed MMP-9 [1, 8] | Percentage of fibroblast cells which expressed MMP-11 [1, 8] | Percentage of fibroblast cells which expressed MMP-13 [1, 8] | Percentage of fibroblast cells which expressed MMP-14 [1, 8] | Percentage of fibroblast cells which expressed SPARC [1, 8] | Percentage of fibroblast cells which expressed TGFα [1, 8] | Percentage of fibroblast cells which expressed TGFβ1 [1, 8] | Percentage of fibroblast cells which expressed TGFβ2 [1, 8] | Percentage of fibroblast cells which expressed TGFβ3 [1, 8] | Percentage of fibroblast cells which expressed MMP-3 [1, 9] | Percentage of fibroblast cells which expressed MMP-7 [1, 9] | Percentage of fibroblast cells which expressed MMP-9 [1, 9] | Percentage of fibroblast cells which expressed MMP-11 [1, 9] | Percentage of fibroblast cells which expressed MMP-13 [1, 9] | Percentage of fibroblast cells which expressed MMP-14 [1, 9] | Percentage of fibroblast cells which expressed SPARC [1, 9] | Percentage of fibroblast cells which expressed TGFα [1, 9] | Percentage of fibroblast cells which expressed TGFβ1 [1, 9] | Percentage of fibroblast cells which expressed TGFβ2 [1, 9] | Percentage of fibroblast cells which expressed TGFβ3 [1, 9] | Percentage of fibroblast cells which expressed MMP-3 [1, 10] | Percentage of fibroblast cells which expressed MMP-7 [1, 10] | Percentage of fibroblast cells which expressed MMP-9 [1, 10] | Percentage of fibroblast cells which expressed MMP-11 [1, 10] | Percentage of fibroblast cells which expressed MMP-13 [1, 10] | Percentage of fibroblast cells which expressed MMP-14 [1, 10] | Percentage of fibroblast cells which expressed SPARC [1, 10] | Percentage of fibroblast cells which expressed TGFα [1, 10] | Percentage of fibroblast cells which expressed TGFβ1 [1, 10] | Percentage of fibroblast cells which expressed TGFβ2 [1, 10] | Percentage of fibroblast cells which expressed TGFβ3 [1, 10] | Percentage of fibroblast cells which expressed MMP-3 [1, 11] | Percentage of fibroblast cells which expressed MMP-7 [1, 11] | Percentage of fibroblast cells which expressed MMP-9 [1, 11] | Percentage of fibroblast cells which expressed MMP-11 [1, 11] | Percentage of fibroblast cells which expressed MMP-13 [1, 11] | Percentage of fibroblast cells which expressed MMP-14 [1, 11] | Percentage of fibroblast cells which expressed SPARC [1, 11] | Percentage of fibroblast cells which expressed TGFα [1, 11] | Percentage of fibroblast cells which expressed TGFβ1 [1, 11] | Percentage of fibroblast cells which expressed TGFβ2 [1, 11] | Percentage of fibroblast cells which expressed TGFβ3 [1, 11] | fibroblasts expressing MMP-7 [2] | fibroblasts expressing MMP-11 [2] | fibroblasts expressing MMP-14 [2] | fibroblasts expressing TGF-α [2] | fibroblasts expressing TGF-β 1 [2] | fibroblasts expressing TGF-β 2 [2] | fibroblasts expressing TGF-β 3 [2] | cells expressing MMP-3 [3] | cells expressing MMP-7 [3] | cells expressing MMP-9 [3] | cells expressing MMP-11 [3] | cells expressing MMP-13 [3] | cells expressing MMP-14 [3] | cells expressing SPARC [3] | cells expressing TGF-α [3] | cells expressing TGF-β1 [3] | cells expressing TGF-β2 [3] | cells expressing TGF-β3 [3] | PHF cells expressing MMP-3 [4] | PHF cells expressing MMP-7 [4] | PHF cells expressing MMP-9 [4] | PHF cells expressing MMP-11 [4] | PHF cells expressing MMP-13 [4] | PHF cells expressing MMP-14 [4] | PHF cells expressing SPARC [4] | PHF cells expressing TGF-α [4] | PHF cells expressing TGF-β1 [4] | PHF cells expressing TGF-β2 [4] | PHF cells expressing TGF-β3 [4] | fibroblasts expressing MMP-7 [5] | fibroblasts expressing MMP-11 [5] | fibroblasts expressing MMP-14 [5] | fibroblasts expressing TGF-α [5] | fibroblasts expressing TGF-β 1 [5] | fibroblasts expressing TGF-β 2 [5] | fibroblasts expressing TGF-β 3 [5] | fibroblasts expressing MMP-7 [6] | fibroblasts expressing MMP-11 [6] | fibroblasts expressing MMP-14 [6] | fibroblasts expressing TGF-α [6] | fibroblasts expressing TGF-β 1 [6] | fibroblasts expressing TGF-β 2 [6] | fibroblasts expressing TGF-β 3 [6]
